This note sets out measurements from patent US20260055079A1, “PHTHALAZINONE COMPOUNDS AS PARP7 INHIBITORS” (AZKARRA THERAPEUTICS, INC., priority 2022, published 2026).

Where only a bound is given, the exact number is not on record here.

This assay deals with His-GST-PARP7 (Homo sapiens (Human), UniProt Q7Z3E1). In words: PARP7 biochemical assay. Conditions: read-out: PARP7 IC50.
His-GST-PARP7, sequence (Q7Z3E1 whole entry): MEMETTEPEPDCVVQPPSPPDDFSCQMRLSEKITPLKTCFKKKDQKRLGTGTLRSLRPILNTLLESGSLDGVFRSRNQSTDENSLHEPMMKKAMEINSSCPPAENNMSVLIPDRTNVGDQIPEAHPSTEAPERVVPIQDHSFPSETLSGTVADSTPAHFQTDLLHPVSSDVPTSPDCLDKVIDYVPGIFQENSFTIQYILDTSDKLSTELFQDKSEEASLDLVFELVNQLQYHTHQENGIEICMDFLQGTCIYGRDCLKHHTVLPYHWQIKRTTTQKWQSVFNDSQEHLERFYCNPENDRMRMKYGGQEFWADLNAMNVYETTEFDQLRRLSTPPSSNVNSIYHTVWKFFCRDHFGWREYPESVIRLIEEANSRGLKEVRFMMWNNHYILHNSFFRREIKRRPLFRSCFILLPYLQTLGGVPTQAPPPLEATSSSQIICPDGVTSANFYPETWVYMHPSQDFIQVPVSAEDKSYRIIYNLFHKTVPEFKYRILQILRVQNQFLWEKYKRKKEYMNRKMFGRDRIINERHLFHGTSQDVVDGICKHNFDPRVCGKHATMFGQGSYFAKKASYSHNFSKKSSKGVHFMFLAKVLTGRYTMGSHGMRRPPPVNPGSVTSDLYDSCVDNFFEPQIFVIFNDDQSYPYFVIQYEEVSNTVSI
Take `CC#Cc1ccc2c(=O)[nH]nc(Cc3ccc(F)c(C(=O)N4C[C@@H]5C[C@H]4CN5c4ccc(C#N)cn4)c3)c2c1` [Example 68, 6-((1S,4S)-5-(2-fluoro-5-((4-oxo-7-(prop-1-ynyl)-3,4-dihydrophthalazin-1-yl)methyl)benzoyl)-2,5-diazabicyclo[2.2.1]heptan-2-yl)nicotinonitrile]: the IC50 is 500 to 2000 nM.
With `CC#Cc1ccc2c(=O)[nH]nc(C(C)CCCC(=O)N3CCN(c4ncc(C(F)(F)F)cn4)CC3)c2c1` (centres unmarked) [Example 195, 4-(6-Oxo-6-(4-(5-(trifluoromethyl)pyrimidin-2-yl)piperazin-1-yl)hexan-2-yl)-6-(prop-1-yn-1-yl)phthalazin-1(2H)-one] the figure was less than 50 nM.
In the case of `O=C(c1cc(Cc2n[nH]c(=O)c3ccc(OC4CCC4)cc23)ccc1F)N1C[C@H]2CC[C@@H](C1)N2c1ncc(C(F)(F)F)cn1` [Example 100, 6-Cyclobutoxy-4-(4-fluoro-3-(8-(5-(trifluoromethyl)pyrimidin-2-yl)-3,8-diazabicyclo[3.2.1]octane-3-carbonyl)benzyl)phthalazin-1(2H)-one], the IC50 was less than 50 nM.
With `CN(c1cc(C#N)ccn1)C1CN(C(=O)c2cc(Cc3n[nH]c(=O)c4ccc(OC5COC5)cc34)ccc2F)C1` [Example 124, 2-((1-(2-fluoro-5-((7-(oxetan-3-yloxy)-4-oxo-3,4-dihydrophthalazin-1-yl)methyl)benzoyl)azetidin-3-yl)(methyl)amino)isonicotinonitrile] the figure was greater than 2000 nM; with `O=C(c1cc(Cc2n[nH]c(=O)c3ccc(OC4CCC4)cc23)ccc1F)N1CCn2c(nnc2C(F)F)C1` [Example 163, 6-Cyclobutoxy-4-(3-(3-(difluoromethyl)-5,6,7,8-tetrahydro-[1,2,4]triazolo[4,3-a]pyrazine-7-carbonyl)-4-fluorobenzyl)phthalazin-1(2H)-one], less than 50 nM.
In the case of `COCc1nnc2n1CCN(C(=O)c1cc(Cc3n[nH]c(=O)c4ccc(OC5CCC5)cc34)ccc1F)C2` [Example 167, 6-Cyclobutoxy-4-(4-fluoro-3-(3-(methoxymethyl)-5,6,7,8-tetrahydro-[1,2,4]triazolo[4,3-a]pyrazine-7-carbonyl)benzyl)phthalazin-1(2H)-one] it was less than 50 nM; in that of `O=C(c1cc(Cc2n[nH]c(=O)c3ccc(OC4CCC4)cc23)ccc1F)N1CC2CN(C(=O)C3CC3)CC2C1` (centres unmarked) [Example 119, 6-Cyclobutoxy-4-(3-(5-(cyclopropanecarbonyl)octahydropyrrolo[3,4-c]pyrrole-2-carbonyl)-4-fluorobenzyl)phthalazin-1(2H)-one], 500 to 2000 nM; in that of `CC#Cc1ccc2c(=O)[nH]nc(Cc3ccc(F)c(C(=O)N4CCN(c5cncc(C#N)n5)CC4)c3)c2c1` [Example 55, 6-(4-(2-Fluoro-5-((4-oxo-7-(prop-1-ynyl)-3,4-dihydrophthalazin-1-yl)methyl)benzoyl)piperazin-1-yl)pyrazine-2-carbonitrile], 100 to 500 nM.
With `N#Cc1ccc(N2CC3CCC2CN3C(=O)c2cc(Cc3n[nH]c(=O)c4ccc(OC5CCC5)cc34)ccc2F)nc1` (centres unmarked) [Example 143, 6-(5-(5-((7-cyclobutoxy-4-oxo-3,4-dihydrophthalazin-1-yl)methyl)-2-fluorobenzoyl)-2,5-diazabicyclo[2.2.2]octan-2-yl)nicotinonitrile], the 50% inhibitory concentration (IC50) lay within 50 to 100 nM.
Regarding `O=C(c1cc(Cc2n[nH]c(=O)c3ccc(OC4CCC4)cc23)ccc1F)N1[C@@H]2CC[C@H]1CN(c1ncc(C(F)(F)F)cn1)C2` [Example 97, 6-cyclobutoxy-4-(4-fluoro-3-(3-(5-(trifluoromethyl)pyrimidin-2-yl)-3,8-diazabicyclo[3.2.1]octane-8-carbonyl)benzyl)phthalazin-1(2H)-one], the concentration for half-maximal inhibition (IC50) was less than 50 nM.
Regarding `N#Cc1ccc(N2CC3CN(C(=O)c4cc(Cc5n[nH]c(=O)c6ccc(OC7CCC7)cc56)ccc4F)CC3C2)nc1` (centres unmarked) [Example 115, 6-(5-(5-((7-Cyclobutoxy-4-oxo-3,4-dihydrophthalazin-1-yl)methyl)-2-fluorobenzoyl)hexahydropyrrolo[3,4-c]pyrrol-2(1H)-yl)nicotinonitrile], the 50% inhibitory concentration (IC50) lay in the range of 100 to 500 nM.
